For assay [1], the system named is NPY1R and NPY4R. The following applies: cited from earlier work. The source says: Specifically, Arg25 and Arg35 in 26RFa and NPY/PP are exposed to a conserved polar environment that includes residues E^45.52, T^5.39, and D/E^6.59 in QRFPR and NPYRs. However, subtle differences exist in the special binding interactions between these arginines and conserved polar residues (Fig. 4d–f). Side chains of Arg35 in NPY/PP form a conserved salt bridge with D^6.59 and a hydrogen bond with T^5.39 (NPY1R and NPY4R) or a salt bridge with E^45.52 (NPY2R) (Fig. 4e, f). In 26RFa, Arg25 retains its salt bridge with E203^45.52 but fails to build a salt bridge with E297^6.59 (Fig. 3b). It is p ... || Phe26 in 26RFa and Tyr36 in NPY/PP show distinct binding characteristics for QRFRP and NPYRs, respectively. […] (Fig. 4e). However, in NPY2R, this hydrogen bond is absent due to the substitution of glutamine with leucine at position 5.46, which lacks a hydrogen bond donor (Fig. 4c, f). Similarly, QRFPR also has a leucine at position 5.46, which cannot form a corresponding hydrogen bond with Phe26 in 26RFa. Furthermore, in contrast to the notable impact of Q^5.46 on the NP ...

Assay [2] has as its system QRFPR. The following applies: cited from earlier work. The source says: The 26RFa/QRFPR system plays critical roles in energy homeostasis. Uncovering the atomic details of 26RFa recognition and regulation of QRFPR is crucial for unraveling the function of QRFPR and developing effective treatments against obesity, diabetes, and eating disorders. […] The unique organization mode is crucial for the recognition of 26RFa by QRFPR. The C-terminal heptapeptide of 26R ...

For assay [3], the target named is T1, QRFPR mutants (Homo sapiens, UniProt Q96P65, P122A).
T1 construct: expressed in transfected cells; host or cells: HEK293, transient transfection by electroporation
T1 sequence (Q96P65 whole entry P122A): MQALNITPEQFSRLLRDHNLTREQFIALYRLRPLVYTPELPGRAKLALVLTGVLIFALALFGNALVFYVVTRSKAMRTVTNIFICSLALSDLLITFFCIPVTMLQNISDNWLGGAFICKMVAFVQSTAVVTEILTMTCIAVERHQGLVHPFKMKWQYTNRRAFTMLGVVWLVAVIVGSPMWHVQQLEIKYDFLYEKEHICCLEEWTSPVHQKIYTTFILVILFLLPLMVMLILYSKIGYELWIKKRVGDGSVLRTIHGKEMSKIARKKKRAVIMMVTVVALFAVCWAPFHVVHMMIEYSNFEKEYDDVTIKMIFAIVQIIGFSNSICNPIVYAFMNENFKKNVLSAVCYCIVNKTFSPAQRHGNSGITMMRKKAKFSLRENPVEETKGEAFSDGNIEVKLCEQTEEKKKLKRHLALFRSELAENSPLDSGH
Briefly: 26RFa-induced calcium mobilization, receptor mutants. Type of assay: cell-based. The following applies: HEK293, QRFPR P122^3.29A; HEK293, Fluo-4; mean ± S.E.M., n ≥ 3. As for the experimental part:
(§1) The gene encoding the WT QRFPR, PrPRR, KISS1R, NPFF1R, or NPFF2R was subcloned into the pcDNA3.0 vector with the addition of an N-terminal HA tag. All of the mutations used for functional studies were generated by QuickChange PCR and verified by DNA sequencing.
(§2) HEK293 cells were obtained from ATCC (Manassas, VA, USA) and cultured in DMEM supplemented with 10% (v/v) FBS, 100 mg/L penicillin, and 100 mg/L streptomycin in 5% CO2 at 37 °C. For transient transfection, ~2.5 × 10^6 cells were mixed with 2 µg plasmids in 200 µL transfection buffer, and electroporation was carried out with a Scientz-2C electroporation apparatus (Scientz Biotech, Ningbo, China). The experiments were carried out 24 h after transfection.
(§3) For QRFPR, PrRPR, and KISS1R, HEK293 cells transfected with WT receptor or its mutants were seeded at a density of 4 × 10^4 per well into 96-well culture plates and incubated for 24 h at 37 °C in 5% CO2. For NPFF1R and NPFF2R, plasmids were transfected into HEK293 cells stably expressing Gα16. On the next day, cells were incubated with 2 μmol/L Fluo-4 AM in HBSS supplemented with 5.6 mmol/L D-glucose and 250 μmol/L sulfinpyrazone at 37 °C for 45 min. After washing, cells were added with 50 μL HBSS and incubated at room temperature for 10 min, then 25 μL agonist buffer was dispensed into the well using a FlexStation III microplate reader (Molecular Devices), and intracellular calcium change was recorded at an excitation wavelength of 485 nm and an emission wavelength of 525 nm. EC50 and Emax values for each curve were calculated by Prism 8.0 software (GraphPad Software).
On the technique in general: A change in cytosolic calcium serves as a functional read-out for many receptors and channels.

Assay [4] deals with QRFPR mutants. The assay is described as above. Type of assay: cell-based, human. As for the experimental part: as §1, §2, §3
For assay [5], the target named is T2, QRFPR mutants (Homo sapiens, UniProt Q96P65, T102A).
T2 construct: expressed in transfected cells; host or cells: HEK293, transient transfection by electroporation
T2 sequence (Q96P65 whole entry T102A): as the sequence (Q96P65 whole entry P122A) above, with T102A, A122P counted along it
The assay is described as above. The following applies: HEK293, QRFPR T102^2.60A; HEK293, Fluo-4; mean ± S.E.M., n ≥ 3. Type of assay: cell-based. As to the method:
as §1, §2, §3

Assay [6] deals with T3, QRFPR mutants (Homo sapiens, UniProt Q96P65, V101A).
T3 construct: expressed in transfected cells; host or cells: HEK293, transient transfection by electroporation
T3 sequence (Q96P65 whole entry V101A): as the sequence (Q96P65 whole entry P122A) above, with V101A, A122P counted along it
The description is as above. Type of assay: cell-based. The following applies: HEK293, QRFPR V101^2.59A; HEK293, Fluo-4; mean ± S.E.M., n ≥ 3. As for the experimental part:
as §1, §2, §3

The target in assay [7] is T4, QRFPR mutants (Homo sapiens, UniProt Q96P65, Q125A).
T4 construct: expressed in transfected cells; host or cells: HEK293, transient transfection by electroporation
T4 sequence (Q96P65 whole entry Q125A): as the sequence (Q96P65 whole entry P122A) above, with A122P, Q125A counted along it
The assay is described as above. Format: cell-based. The following applies: HEK293, QRFPR Q125^3.32A; HEK293, Fluo-4; mean ± S.E.M., n ≥ 3. As for the experimental part:
as §1, §2, §3

Assay [8] addresses T5, QRFPR mutants (Homo sapiens, UniProt Q96P65, W111A).
T5 construct: expressed in transfected cells; host or cells: HEK293, transient transfection by electroporation
The description is as above. The following applies: HEK293, QRFPR W111^23.50A; HEK293, Fluo-4; mean ± S.E.M., n ≥ 3. Format: cell-based. As for the experimental part: as §1, §2, §3

For assay [9], the target named is T6, QRFPR mutants (Homo sapiens, UniProt Q96P65).
T6 construct: expressed in transfected cells; host or cells: HEK293, transient transfection by electroporation
T6 sequence (Q96P65 19-431, change not shown): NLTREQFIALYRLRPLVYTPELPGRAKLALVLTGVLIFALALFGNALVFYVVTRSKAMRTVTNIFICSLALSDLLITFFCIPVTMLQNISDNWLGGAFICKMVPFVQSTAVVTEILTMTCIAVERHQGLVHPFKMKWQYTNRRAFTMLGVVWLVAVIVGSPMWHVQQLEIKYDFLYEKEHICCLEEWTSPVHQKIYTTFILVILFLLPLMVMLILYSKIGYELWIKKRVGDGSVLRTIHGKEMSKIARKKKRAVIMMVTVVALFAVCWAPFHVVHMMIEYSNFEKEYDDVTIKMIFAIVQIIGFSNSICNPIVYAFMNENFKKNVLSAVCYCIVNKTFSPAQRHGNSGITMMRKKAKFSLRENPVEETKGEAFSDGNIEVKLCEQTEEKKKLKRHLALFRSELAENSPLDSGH
Described as above. Format: cell-based. The following applies: HEK293, QRFPR Δ1-18; HEK293, Fluo-4; mean ± S.E.M., n ≥ 3. As for the experimental part:
as §1, §2, §3

The target of assay [10] is T7, QRFPR mutants (Homo sapiens, UniProt Q96P65, I117A).
T7 construct: expressed in transfected cells; host or cells: HEK293, transient transfection by electroporation
T7 sequence (Q96P65 whole entry I117A): as the sequence (Q96P65 whole entry P122A) above, with I117A, A122P counted along it
The description is as above. The following applies: HEK293, QRFPR I117^3.24A; HEK293, Fluo-4; mean ± S.E.M., n ≥ 3. Type of assay: cell-based. As to the method:
as §1, §2, §3

Assay [11] has as its target T8, QRFPR mutants (Homo sapiens, UniProt Q96P65, C201A).
T8 construct: expressed in transfected cells; host or cells: HEK293, transient transfection by electroporation
The assay is described as above. The following applies: HEK293, QRFPR C201^ECL2A; HEK293, Fluo-4; mean ± S.E.M., n ≥ 3. Format: cell-based. As to the method: as §1, §2, §3

Assay [12] has as its target T9, QRFPR mutants (Homo sapiens, UniProt Q96P65, Y190A).
T9 construct: expressed in transfected cells; host or cells: HEK293, transient transfection by electroporation
Described as above. Format: cell-based. The following applies: HEK293, QRFPR Y190^ECL2A; HEK293, Fluo-4; mean ± S.E.M., n ≥ 3. As to the method: as §1, §2, §3

The target in assay [13] is T10, QRFPR mutants (Homo sapiens, UniProt Q96P65, H293A).
T10 construct: expressed in transfected cells; host or cells: HEK293, transient transfection by electroporation
T10 sequence (Q96P65 whole entry H293A): as the sequence (Q96P65 whole entry P122A) above, with A122P, H293A counted along it
Described as above. Format: cell-based. The following applies: HEK293, QRFPR H293^6.55A; HEK293, Fluo-4; mean ± S.E.M., n ≥ 3. As to the method:
as §1, §2, §3

The target of assay [14] is T11, QRFPR (WT) (Homo sapiens, UniProt Q96P65).
T11 construct: expressed in transfected cells; host or cells: HEK293, transient transfection by electroporation
T11 sequence (Q96P65 whole entry): as the sequence (Q96P65 whole entry P122A) above, with A122P counted along it
Briefly: 26RFa-induced calcium mobilization, wild-type receptor. The following applies: HEK293, Fluo-4 AM, ex 485/em 525 nm, mean ± S.E.M., at least three independent experiments. Type of assay: cell-based. As for the experimental part:
as §1, §2
as §3, with “For NPFF1R and NPFF2R, plasmids were transfected into HEK293 cells stably expressing Gα16. On the next day, cells were incubated with 2 μmol/L Fluo-4 AM in HBSS supplemented with 5.6 mmol/L D-glucose and 250 μmol/L sulfinpyrazone at 37 °C for 45 min.” left out

No end group written: not given here.

T8 sequence (Q96P65 whole entry C201A): as the sequence (Q96P65 whole entry P122A) above, with A122P, C201A counted along it
T9 sequence (Q96P65 whole entry Y190A): as the sequence (Q96P65 whole entry P122A) above, with A122P, Y190A counted along it
T5 sequence (Q96P65 whole entry W111A): as the sequence (Q96P65 whole entry P122A) above, with W111A, A122P counted along it

ASGPLGTLAEELSSYSRRKGGFSFRF-NH2 [26RFa]: the “role of amide-surrounding residues (C^2.57, T^2.61, Q^3.32, Q/H^7.39) in activity” value in [1] was “critical for 26RFa and NPY/PP activities”. Besides, in [2], the “selectivity for QRFPR” value is “high selectivity of 26RFa for QRFPR”. Further, the maximal response (Emax) (as a rule, the greatest response seen or fitted, relative to the assay's reference) turned out to be 96.7 ± 1.4% in [3]; 94 ± 1.4% in assay [5]; 102 ± 1.7% in assay [6]; 14.1 ± 1.8% in assay [7]; 73.4 ± 1.7% in assay [8]; 53.2 ± 0.75% in [9]. Moreover, the Emax in assay [10] was determined as 75.1 ± 3.1%; in assay [11], 1.84 ± 1.5%; in [12], 23.6 ± 0.22%; in assay [13], 95.5 ± 1.6%; in assay [14] it was 100 ± 1%. In addition, the “role of Q^3.32 and Q/H^7.39 in activity” value in assay [4] (26RFa, QRFPR) is recorded as “critical for the activity”. Moreover, the “effect of mutation on QRFPR activation” value in assay [4] (alanine substitution of W111^23.50 and two conserved cysteines (C118^3.25, C201^45.50)) is “notably hampered QRFPR activation”. Further, the “role of residues in 26RFa-induced receptor activation” value in [4] (residues around Arg25-Phe26-amide except I218^5.42 (E203, Q318, Y214, V129, F289, Q125, C98, F322)) is recorded as “essential for 26RFa-induced receptor activation”.

The values above are taken from PMC11148045, “Structural basis for recognition of 26RFa by the pyroglutamylated RFamide peptide receptor” (Cell Discovery, 2024).
